Data taken from article PMC9302676 (Chemsuschem, 2022).

Key:
P450 BM3 (CYP102A1) [1] = molecular target: P450 BM3 (CYP102A1) (Priestia megaterium, UniProt P14779, N320L/T412V/T437A); assay: biochemical
P450 BM3 (CYP102A1) [2] = molecular target: P450 BM3 (CYP102A1) (Priestia megaterium, UniProt P14779); assay: biochemical
Sequence of P450 BM3 (CYP102A1) (Priestia megaterium, UniProt P14779) (P14779 whole entry): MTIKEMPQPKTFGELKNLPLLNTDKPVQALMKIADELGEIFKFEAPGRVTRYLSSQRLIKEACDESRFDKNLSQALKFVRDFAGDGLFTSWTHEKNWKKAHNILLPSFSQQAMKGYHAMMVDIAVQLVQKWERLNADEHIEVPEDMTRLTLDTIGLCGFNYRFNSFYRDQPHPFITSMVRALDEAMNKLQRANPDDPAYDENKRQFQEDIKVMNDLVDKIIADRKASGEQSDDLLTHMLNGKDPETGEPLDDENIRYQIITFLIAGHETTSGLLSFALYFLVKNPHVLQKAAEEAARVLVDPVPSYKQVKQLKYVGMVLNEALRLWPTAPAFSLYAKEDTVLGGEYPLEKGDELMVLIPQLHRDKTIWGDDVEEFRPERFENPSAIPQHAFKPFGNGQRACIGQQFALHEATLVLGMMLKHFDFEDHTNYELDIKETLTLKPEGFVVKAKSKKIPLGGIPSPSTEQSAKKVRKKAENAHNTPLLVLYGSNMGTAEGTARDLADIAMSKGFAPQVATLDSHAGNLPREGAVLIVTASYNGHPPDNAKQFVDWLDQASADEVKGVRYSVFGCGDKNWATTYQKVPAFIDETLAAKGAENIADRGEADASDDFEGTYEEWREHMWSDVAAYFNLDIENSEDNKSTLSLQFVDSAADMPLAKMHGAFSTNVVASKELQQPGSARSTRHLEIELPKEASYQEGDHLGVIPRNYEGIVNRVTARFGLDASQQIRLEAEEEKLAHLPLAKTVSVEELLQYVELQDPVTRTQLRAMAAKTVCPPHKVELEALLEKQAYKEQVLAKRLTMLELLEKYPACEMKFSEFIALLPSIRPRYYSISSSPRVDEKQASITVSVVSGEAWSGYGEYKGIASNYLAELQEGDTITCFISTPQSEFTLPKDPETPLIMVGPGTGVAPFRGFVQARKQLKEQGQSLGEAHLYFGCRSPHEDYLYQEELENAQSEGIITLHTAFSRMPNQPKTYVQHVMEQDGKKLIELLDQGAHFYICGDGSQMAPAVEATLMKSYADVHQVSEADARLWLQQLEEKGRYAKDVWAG

Sequence of P450 BM3 (CYP102A1) (Priestia megaterium, UniProt P14779, N320L/T412V/T437A) (P14779 whole entry N320L/T412V/T437A): as the sequence (P14779 whole entry) above, with N320L, T412V, T437A counted along it

- Kd (P450 BM3 (CYP102A1) [1]): 6.263 ± 0.047 mM
- Kd (P450 BM3 (CYP102A1) [2]): 6.85 ± 0.079 mM
SMILES: CC1=CC(=O)CC(C)(C)C1 [α-isophorone]
